# US9045415B2, “Targeting of EWS-FLI1 as anti-tumor therapy” (Georgetown University, priority 2006, dated 2015)
# Experiments:
# [1] = system: cyclin D levels in TC32 cells; test: Cyclin D immunoblot, TC32 cells; type: cell-based; details: TC32 cells treated for 14 hours
# ES925 = test: Cell growth, primary ESFT line ES925; type: cell-based; details: Homo sapiens, 72 h; 3 days; read-out: anti-proliferative IC50
# Protocol: (§1) FIG. 33 provides data showing YK-4-279 is potent and specific inhibitor of ESFT. […] Cell number was measured by MTT or WST reduction after seven days in culture. […] FIG. 33D cell lines expressing EWS-FLI1 compared to non-EWS-FLI1 malignant cell lines following 3 days in culture to establish the IC50 using WST assay. […] Graph plots level of fluorescence in treated divided by untreated lysate. […] Scale bar equals 200 μm.
# GUES1 = test: Cell growth, primary ESFT line GUES1; type: cell-based; details: Homo sapiens, 72 h; 3 days; read-out: anti-proliferative IC50
# Protocol: as §1
# [2] = system: cell lines that lack EWSFLI1; test: Cell growth (WST), cell lines that lack EWS-FLI1; type: cell-based; details: 72 h, 3 days
# Protocol: as §1
# [3] = system: non-transformed keratinocytes (HFK) and ectocervical cells (HEC); test: Viability (WST), non-transformed HFK and HEC; type: cell-based; details: Keratinocyte, 72 h; treated for 3 days
# Protocol: (§2) FIG. 39A provides data showing HEC and HFK, non-transformed endocervical cells and keritinocytes, treated with YK-4-279 for 72 hours and assayed for viability using WST reduction. FIG. 39B provides data showing TC71 cells treated for 16 hours with YK-4-279 or doxorubicin. Lysates were assayed for cleavage of AMC-DEVD by induced caspase-3 and fluorescence was measured. FIG. 39C provides data showing that RHA reduced TC71 cells were more resistant to YK-4-279 treatment than wild-type cells. FIG. 39D provides data showing an shRNA tet-inducible expression vector stably transfected into A673 (ESFT) cells to reduce EWS-FLI1 levels. FIG. 39E provides data showing that EWS-FLI1 reduced A673 cells were more resistant to YK-4-279 treatment than wild-type cells.
# A673 cells = test: YK-4-279 toxicity in shRNA-modified ESFT cells; type: cell-based; details: for IC50: Homo sapiens
# Protocol: as §2
# shRNA (short hairpin RNA) against RHA was purchased from Open Biosystems (Huntsville, Ala.) Both virus production and purification were done according to Open Biosystems protocols. (For designing shRNA see McIntyre G. J. et al. “Design and cloning strategies for constructing shRNA expression vectors.” BMC Biotechnol. (2006) 6:1)
# In order to further support for the target specificity of YK-4-279 toxicity upon ESFT cells, the levels of each of the critical proteins were reduced by using shRNA in A673 cells42. […] When EWS-FLI1 was reduced using shRNA, the IC50 increased 10-fold from 0.5 μM to approximately 5 μM (FIG. 39D, FIG. 39E).
# [4] = system: ESFT cell lines (TC32, A4573, TC71, and ES925); test: Caspase-3 activity (DEVD-AMC cleavage), ESFT cell lines; type: cell-based; details: 24 hours
# Protocol: (§3) Cells were treated for 24 hours with 10 μM YK-4-279. The Caspase-3 substrate DEVD-AMC was incubated with equal amounts of protein lysate and fluorescence from cleaved substrate measured in a fluorimeter. TC32 and non-transformed cells HEK-293, HFK, and HEC were treated for 6 hours with high dose (50 μM) YK-4-279. DAPI stained cells were photographed at 600× using inverted fluorescence microscope.
# TC32 = test: Nuclear fragmentation (DAPI), TC32; type: cell-based; details: 50 μM, 6 hours
# Protocol: as §3
# HEK293, HFK, and HEC = test: Nuclear fragmentation (DAPI), non-transformed cells; type: cell-based; details: 50 μM, 6 hours
# Protocol: as §3
# [5] = system: ESFT xenografts (TC71 and CHP-100); test: ESFT orthotopic xenografts treated with YK-4-279; type: in vivo, mice
# Protocol: Xenografts were established with injection of either ESFT (CHP-100 or TC71) or Prostate cancer (PC3) cells. […] Single experiment growth curves depicted are representative of five independent experiments. […] Tumor volumes at day 14 after treatment initiation compared across 5 experiments (DMSO n=19, YK-4-279 n=25, p<0.0001, by Mann-Whitney test).
# One million TC71 or CHP-100 cells in 100 μL HBSS were injected orthotopically into the gastrocnemius muscle of 4-8 week old SCID/bg mice (Taconic, Germantown, N.Y.). Prostate cancer xenografts were established by subcutaneous injection of 5 million PC3 cells into the flanks of 4-8 week old nude mice (Taconic). Mice were randomized to receive three times per week intraperitoneal injections of DMSO, YK-4-279 at 1.5 mg/dose when tumors were palpable. Each of the animal experiments was begun with 10 mice that were randomized into treatment and control groups when the tumors reached palpable size. In the control groups some tumors exceeded the IACUC maximal size (2 cm in any dimension) and were euthanized prior to day 14 and thus not included in the day 14 analysis (FIG. 6c). Tumor length and width were measured every 2-4 days and volume was calculated using the formula […] where D is the longest diameter and d is the shorter diameter. Xenograft studies were approved by the Memorial Sloan-Kettering Cancer Center Institutional Animal Care and Use Committee.
smiles,measurement,setting,value
"COc1ccc(C(=O)CC2(O)C(=O)Nc3c(Cl)ccc(Cl)c32)cc1 (stereo not shown) [YK-4-279, 4,7-Dichloro-3-hydroxy-3-[2-(4-methoxyphenyl)-2-oxoethyl]-1,3-dihydro-2H-indol-2-one]",cyclin D levels,[1],nearly eliminated cyclin D levels
same,IC50,ES925,1 µM
same,IC50,GUES1,8 µM
same,IC50,[2],> 25 µM
same,IC50,[3],> 30 µM
same,increase of IC50 when EWS-FLI1 was reduced,A673 cells,10 fold
same,IC50,"A673 cells; A673, EWS-FLI1 reduced using shRNA",~5 µM
same,IC50,"A673 cells; A673, RHA reduced cells (shRNA)",> 10 µM
same,IC50,"A673 cells; A673, before EWS-FLI1 reduction",0.5 µM
same,IC50,"A673 cells; A673, control shRNA (targeting luciferase)",< 1 µM
same,caspase-3 activity,"[4]; TC32 cells, dose range",rose in a dose dependent fashion
same,caspase-3 activation,"[4]; four ESFT cell lines, 10 μM",induced caspase-3 activity
same,apoptosis (nuclear fragmentation),TC32,significant apoptosis
same,cell death (nuclear fragmentation),"HEK293, HFK, and HEC",no cell death
same,tumor growth,[5]; 60-75 mg/kg,significantly reduced tumor growth
same,tumor growth rate,"[5]; CHP-100, 1.5 mg/dose i.p. three times per week",reduced
same,increase in caspase-3 activity in tumors compared to control animals,"[5]; CHP-100 xenograft tumors, immunohistochemistry",3 fold
same,"overall response, tumor volumes at day 14, five experiments","[5]; TC71 and CHP-100, 1.5 mg/dose",marked overall tumor reduction
same,pathological analysis of treated animals,"[5]; mouse, in vivo",did not show any signs of toxicity except changes related to IP injection
